Where “and” joins values, the source holds several entries; their conditions need not be identical. Equal entries are not always repeated.
Settings: Crystal, Calculated from knudsen effusion weight loss

c1ccc(-c2cc(-c3ccccc3)cc(-c3ccccc3)c2)cc1 [1,3,5-triphenylbenzene]
Settings	vapor or sublimation pressure
404.34 K	9.95e-05 kPa
405.34 K	0.0001076 kPa
407.27 K	0.000136 kPa
408.34 K	0.0001462 kPa
408.35 K	0.0001487 kPa
410.36 K	0.0001809 kPa
412.35 K	0.0002238 kPa and 0.0002202 kPa
413.28 K	0.000252 kPa
414.37 K	0.0002718 kPa
416.35 K	0.0003305 kPa
416.37 K	0.0003361 kPa
418.28 K	0.000412 kPa
418.39 K	0.000405 kPa
420.36 K	0.0004929 kPa
420.39 K	0.0005004 kPa
422.41 K	0.000601 kPa
423.28 K	0.000671 kPa
424.37 K	0.000729 kPa
424.42 K	0.0007385 kPa
426.43 K	0.0008947 kPa
428.29 K	0.001087 kPa
428.38 K	0.00108 kPa
428.45 K	0.001096 kPa

O=C1c2ccccc2-c2cccc3cccc1c23 [7H-benz[de]anthracen-7-one]
Settings	vapor or sublimation pressure [kPa]
388.22 K	0.0001308
389.22 K	0.0001419
390.22 K	0.0001594
391.22 K	0.0001742
392.19 K	0.0001926
392.22 K	0.0001937
393.23 K	0.0002126
394.2 K	0.000232
394.23 K	0.0002331
395.24 K	0.0002574
396.2 K	0.0002786
396.23 K	0.0002797
397.24 K	0.0003067
398.2 K	0.0003364
398.23 K	0.0003376
399.24 K	0.0003702
400.21 K	0.0004108
400.24 K	0.000412
401.24 K	0.0004472
402.21 K	0.0004911
402.24 K	0.0004922
403.25 K	0.000532
404.21 K	0.0005813
406.21 K	0.0007014
408.22 K	0.0008383

c1ccc2cc3ccccc3cc2c1 [anthracene]
Settings	vapor or sublimation pressure
323.31 K	2.21e-05 kPa
327.16 K	3.51e-05 kPa
331.27 K	5.47e-05 kPa
335.32 K	8.42e-05 kPa
339.31 K	0.00013 kPa
343.32 K	0.000197 kPa
347.26 K	0.000281 kPa
347.33 K	0.000289 kPa
351.27 K	0.00043 kPa
351.33 K	0.000426 kPa and 0.000424 kPa
355.26 K	0.000604 kPa
355.33 K	0.000634 kPa
357.34 K	0.000783 kPa
359.26 K	0.000876 kPa
359.33 K	0.000945 kPa
363.34 K	0.001374 kPa
367.27 K	0.001898 kPa
367.35 K	0.001967 kPa
371.35 K	0.002859 kPa
375.36 K	0.004145 kPa
